In patent US20140323593A1, “METHODS AND APPARATUS FOR THE CONTROL OF ADENOSINE TRIPHOSPHATE SYNTHASE ACTIVITY WITHIN LIVING ORGANISMS, AND CONDITIONING OF WATER-BASED FLUIDS AND SUBSTANCES USING MAGNETIC FIELD EXPOSURES OR THEIR WITHDRAWAL” (priority 2013, published 2014):

Legend:
[1] = test system: 60 cancer cell lines maintained by the US National Cancer Institute (NCI-60); conditions: mean over NCI-60 cell lines; read-out: IC50 (the concentration inhibiting proliferation rate by 50%), mean; cited from earlier work
[2] = test system: leukemic cell K562; test: average reductions in chromosome numbers (karyotype contraction) in K562; assay type: cell-based, human
Source text: First, we observed that 5 different cancer cell lines representative of the most common human cancers display a reduction in their chromosome numbers when exposed to 60-Hz MFs (Appendix 1). Reductions in chromosome numbers result from metabolic restriction (Li et al., 2012), which can be caused by impaired ATPS function.
Fourth, Russian physicists (Semikhina and Kiselev, 1981) observed resonances for water at specific frequency-amplitude combinations that are broadened by the presence of even small levels of impurities. They detected one maximum at 156.2-Hz and 15.45 μT for 7° C. pure water (Semikhina et al, 1988). In our experiments compiling average chromosome losses over frequency in anoxic K562 (5% carbon dioxide and 37° C.) 6-day tests at 1 μT, a wide resonance was measured as follows: −3.6±0.79 at 50-Hz, −9.36±1.06 at 60-Hz, −12.71±1.82 at 120-Hz and −9.8±1.31 at 155-Hz. […] The ATPS resonance at […] we documented is indeed wider than that reported by Semikhina for pure water. […]
Our laboratory has detected ATPSI at all tested frequencies and at all MF intensities above 25 nT using measurements of karyotype contraction (see Appendix 1) in numerous cell lines: K562 and HEL (erythro-leukemias). […] In our experiments, ATPSI detected by karyotype contractions varied only weakly with field intensities between 25 nT and 5 μT, but probably cover the range of 10 nT to 879 μT. […]

Row | Compound | IC50 [1] [µM] | average reductions in chromosome numbers ([2]; K562, substance alone for 3 days, metformin 0.01 mg/l, resistin 40 ng/l) | average reductions in chromosome numbers (losses) with 1 μT added ([2]; K562, 1 μT magnetic field added to metformin 0.01 mg/l or resistin 40 ng/l, 1 μT alone 7.5)
1 | CC[C@H]1/C=C/C=C/C[C@@H](C)[C@H](O)[C@@](C)(O)C(=O)[C@@H](C)[C@H](O)[C@@H](C)C(=O)[C@@H](C)[C@H](O)[C@@H](C)/C=C/C(=O)O[C@@H]2[C@H](C)[C@H](CC1)O[C@]1(CC[C@H](C)[C@H](C[C@@H](C)O)O1)[C@H]2C [oligomycin] | 0.3 |  | 
2 | CN(C)C(=N)N=C(N)N [Metformin] |  | 9 | 11±0.34
